Data: patent publication EP4570805A1, “TRICYCLIC COMPOUNDS AND MEDICAL USE THEREOF” (Chia Tai Tianqing Pharmaceutical Group Co., Ltd., priority 2022, dated 2024)

Key:
His-KRAS G12D (1-169) = biological target: T1, His-KRAS G12D (1-169) (Homo sapiens, UniProt P01116, G12D); experiment: Nucleotide exchange assay (SOS1cat-mediated, HTRF); type: biochemical; conditions: room temperature, read-out: Nucleotide exchange inhibitory activity IC50
T1 construct: His-KRAS G12D (1-169)
Procedure: • 1. Reagents: His-KRAS G12D (1-169); SOS1^cat (564-1049); GDP (purchased from Sigma); Anti-6HIS-Cryptate (purchased from Cisbio); EDA-GTP-DY-647P1 (purchased from Jena Bioscience) • 2. Buffer preparation: • 1) assay buffer: HEPES pH 7.4, NaCl, MgCl2, DTT, BSA, and Igepal; • 2) KRAS G12D working solution: A KRAS G12D working solution containing 100 nM His-KRAS G12D and 2 nM Anti-6HIS-Cryptate was prepared using the assay buffer; • 3) SOS1^cat working solution: An SOS1^cat working solution containing 20 nM SOS1^cat and 200 nM EDA-GTP-DY-647P1 was prepared using the assay buffer; • 4) blank control working solution: A blank control solution containing 2 nM Anti-6HIS-Cryptate was prepared using the assay buffer. • 3. Testing procedure: The entire experimental process was completed at room temperature. Using a black clear-bottom 384-well plate, 5 µL of KRAS G12D working solution was added to each well for the experimental and negative groups, while 5 µL of blank control working solution was added to each well for the blank group. The plate was incubated at room temperature for 10 min. Then, the compounds (at an initial concentration of 100 µM, 8 concentration gradients by 1:2 serial dilution) were added to the experimental groups using an ultra microsyringe and incubated at room temperature for 30 min. Finally, 5 µL of SOS1^cat working solution was added to each well, and after incubation at room temperature for 15 min, signal values were detected at 665 nm/620 nm using a PerkinElmer Envision HTS multi-label plate reader. The inhibition rate was calculated by the following formula: inhibition rate (%) = (mean value of negative control group - mean value of experimental group)/(mean value of negative control group - mean value of blank group) × 100%. The curves were fitted using the four-parameter logistic model with the logarithm of the compound concentration as the abscissa and the inhibition rate as the ordinate, and IC 50 values were calculated.

Capan-1 cells = experiment: Inhibitory activity for Capan-1 cell proliferation (CCK-8); type: cell-based; conditions: Homo sapiens, CAPAN-1, 120 h, 5 days incubation
Procedure: Capan-1 cells in a well-growing state were collected into a centrifuge tube, adjusted to a cell density of 1.5 × 10^4 cells/mL, and inoculated onto a 96-well plate (100 µL/well). […] Meanwhile, a control was set. After 5 days of incubation in the cell incubator, the assay reagent CCK-8 (manufacturer: Dojindo Laboratories, Beijing; 10 µL/well) was added. After 4 h of incubation in the cell incubator, the absorbance was measured at 450 nm on a PerkinElmer Envision microplate reader. A four-parameter analysis was performed, a dose-response curve was fitted, and IC50 was calculated.

AsPc-1 cells = experiment: Inhibitory activity for AsPc-1 cell proliferation (CCK-8); type: cell-based, human; conditions: Homo sapiens, ASPC1, 72 h incubation
Procedure: AsPc-1 cells in a well-growing state were collected into a centrifuge tube, adjusted to a cell density of 3 × 10^4 cells/mL, and inoculated onto a 96-well plate (100 µL/well). The compounds were added using a nanoliter pipettor such that the final concentrations of the compounds were 5000 nM-0.31 nM (the addition was performed in duplicate). Meanwhile, a control was set. After 72 h of incubation in the cell incubator, the assay reagent CCK-8 (manufacturer: Dojindo Laboratories; 10 µL/well) was added. After 3 h of incubation in the cell incubator, the absorbance was measured at 450 nm on a PerkinElmer Envision microplate reader. A four-parameter analysis was performed, a dose-response curve was fitted, and IC50 was calculated.

T1 sequence (P01116 1-169 isoform P01116-2 G12D): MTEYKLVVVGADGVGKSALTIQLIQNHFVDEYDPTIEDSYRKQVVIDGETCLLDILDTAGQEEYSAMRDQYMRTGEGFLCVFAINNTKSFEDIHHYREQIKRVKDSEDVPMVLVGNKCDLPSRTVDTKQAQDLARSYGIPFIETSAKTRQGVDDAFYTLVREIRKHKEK

IC50 (His-KRAS G12D (1-169)) [nM] | IC50 (AsPc-1 cells) [nM] | SMILES | IC50 (Capan-1 cells) [nM]
≤ 100 | – | C#Cc1c(F)ccc2cc(O)cc(-c3nc4c5c(nc(OC[C@@]67CCCN6C[C@H](F)C7)nc5c3F)N(C3CCCC3)CCO4)c12 [Example 7] | –
≤ 100 | 500 to 999 | C#Cc1c(F)ccc2cc(O)cc(-c3nc4c5c(nc(OCC67CCCN6CC(F)C7)nc5c3F)N(C(C)C)CCO4)c12 (stereo not shown) [Example 4] | 100 to 500
≤ 100 | – | C#Cc1c(F)ccc2cc(O)cc(-c3nc4c5c(nc(OCC67CCCN6CC(F)C7)nc5c3F)N(CCN(C)C)CCO4)c12 (stereo not shown) [Example 2] | –
≤ 100 | – | C#Cc1c(F)ccc2cc(O)cc(-c3nc4c5c(nc(OC[C@@]67CCCN6C[C@H](F)C7)nc5c3F)N(CC3CC3)CCO4)c12 [Example 6] | –
500 to 999 | – | C#Cc1c(F)ccc2cc(O)cc(-c3nc4c5c(nc(OCC67CCCN6CC(F)C7)nc5c3F)N(C3CCC(N)C3)CCO4)c12 (stereo not shown) [Example 10] | –
≤ 100 | – | C#Cc1c(F)ccc2cc(O)cc(-c3nc4c5c(nc(OC[C@@]67CCCN6C[C@H](F)C7)nc5c3F)N(C[C@@H](C)N(C)C)CCO4)c12 [Example 24] | –
≤ 100 | 500 to 999 | C#Cc1c(F)ccc2cc(O)cc(-c3nc4c5c(nc(OC[C@@]67CCCN6C[C@H](F)C7)nc5c3F)N(CC(F)(F)F)CCO4)c12 [Example 8] | 100 to 500
≤ 100 | – | C#Cc1c(F)ccc2cc(O)cc(-c3nc4c5c(nc(OCC67CCCN6CC(F)C7)nc5c3F)N(C)CCO4)c12 (stereo not shown) [Example 9] | –
100 to 500 | – | C#Cc1c(F)ccc2cc(O)cc(-c3nc4c5c(nc(OC[C@@]67CCCN6C[C@H](F)C7)nc5c3F)N(C3CC(N(C)C)C3)CCO4)c12 (stereo partly shown) [Example 26] | –
≤ 100 | – | C#Cc1c(F)ccc2cc(O)cc(-c3nc4c5c(nc(OC[C@@]67CCCN6C[C@H](F)C7)nc5c3F)N(C[C@H](C)N(C)C)CCO4)c12 [Example 25] | –
≤ 100 | – | C#Cc1c(F)ccc2cc(O)cc(-c3nc4c5c(nc(OCC67CCCN6CC(F)C7)nc5c3F)N(CC(C)N)CCO4)c12 (stereo not shown) [Example 14] | –
100 to 500 | – | C#Cc1c(F)ccc2cc(O)cc(-c3nc4c5c(nc(OCC67CCCN6CC(F)C7)nc5c3F)N(C3CCC(N(C)C)C3)CCO4)c12 (stereo not shown) [Example 23] | –
≤ 100 | – | C#Cc1c(F)ccc2cc(O)cc(-c3nc4c5c(nc(OCC67CCCN6CC(F)C7)nc5c3F)N(CC(C)N)CCO4)c12 (stereo not shown) [Example 13] | –
≤ 100 | – | C#Cc1c(F)ccc2cc(O)cc(-c3nc4c5c(nc(OC[C@@]67CCCN6C[C@H](F)C7)nc5c3F)N([C@H]3C[C@@H]3N)CCO4)c12 [Example 16] | –
≤ 100 | – | C#Cc1c(F)ccc2cc(O)cc(-c3nc4c5c(nc(OCC67CCCN6CC(F)C7)nc5c3F)N(C3CCC(O)C3)CCO4)c12 (stereo not shown) [Example 15] | –
≤ 100 | – | C#Cc1c(F)ccc2cc(O)cc(-c3nc4c5c(nc(OC[C@@]67CCCN6C[C@H](F)C7)nc5c3F)N(C3CC(N)C3)CCO4)c12 (stereo partly shown) [Example 17] | –
≤ 100 | – | C#Cc1c(F)ccc2cc(O)cc(-c3nc4c5c(nc(OCC67CCCN6CC(F)C7)nc5c3F)N(CC3(N(C)C)CC3)CCO4)c12 (stereo not shown) [Example 22] | –

SMILES | IC50 (His-KRAS G12D (1-169)) [nM] | IC50 (AsPc-1 cells) [nM] | IC50 (Capan-1 cells) [nM]
C#Cc1c(F)ccc2cc(O)cc(-c3nc4c5c(nc(OC[C@@]67CCCN6C[C@H](F)C7)nc5c3F)NCCO4)c12 [Example 1] | ≤ 100 | – | –
